Source: patent US7777049B2, “Crystalline forms of Rizatriptan benzoate” (ratiopharm GmbH, priority 2004, dated 2010)

Test: Suspension equilibration of a Form A / Form B mixture in ethyl acetate, product identified by X-ray powder diffraction
Type: physicochemical
Details: 7 mg Form A and 7 mg Form B suspended in 1 ml ethyl acetate, stirred 16 hours at 25° C.; Form A obtained by XRPD
Procedure: 7 mg rizatriptan benzoate Form A and 7 mg Form B are suspended in 1 ml ethyl acetate, and stirred 16 hours at 25° C. After filtration, a white powder is obtained.
X-ray powder diffraction measurements were performed on a Philips 1710 powder X-ray diffractometer using Cu Kα radiation (Cu Kα1=1.54060 Å). The X-ray source is operated at 45 kV and 45 mA. Spectra are recorded at a step size of 0.02° with a counting time of 2.4 seconds per step. The accuracy of the 2 theta values of conventionally recorded powder X-ray diffraction patterns is generally ±0.1-0.2°. For sample preparation, about 40 mg of substance was prepared into circular shaped quartz sample holders of 0.5 mm depth and 10 mm width.

SMILES | relative thermodynamic stability of the crystalline form
CN(C)CCc1c[nH]c2ccc(Cn3cncn3)cc12 [Form B, N,N-dimethyl-5-(1H-1,2,4-triazol-1-ylmethyl)-1H-indole-3-ethanamine benzoate] | metastable form
CN(C)CCc1c[nH]c2ccc(Cn3cncn3)cc12 [Form A, N,N-dimethyl-5-(1H-1,2,4-triazol-1-ylmethyl)-1H-indole-3-ethanamine benzoate] | thermodynamically most stable form
